In patent US12351581B2, “Compounds for FGFR inhibition” (Cogent Biosciences, Inc., priority 2023, dated 2025):
Where two headings read alike, the source gives them in different places.

Assays:
[1] = molecular target: FGFR2-WT (Homo sapiens, UniProt P21802); assay: Phosphorylated FGFR2-WT (pFGFR2-WT) cell assay, KATOIII cells; format: cell-based; conditions: 1 hour incubation, phospho FGFR2 HTRF
Experimental: KATOIII cells were grown in the appropriate growth medium, IMDM supplemented with 20% fetal bovine serum. Cells were seeded into a 384-well at 1×10^5 cells/25 μL/well. Cells were treated with compound using three-fold serial dilutions at final concentrations ranging from 10 μM to 0.5 nM. Compound was incubated on cells for 1 hour at 37° C., 5% CO2.
Following the 1-hour incubation with compounds, cell lysates were prepared and phospho FGFR2 was measured using the HTRF Phospho-FGFR2 (TYR653/654) Detection Kits (CisBio, cat #64FGFR2Y6PEG). 8 μL of cell lysis buffer (4×) supplied with 1× Phospho and Total protein blocking reagent (CisBio, cat #64FGFR2Y6PEG, CisBio, cat #64KB1AAC) was then added to the wells. Cells were incubated with lysis buffer for 40 minutes at 4° C. under shaking conditions. Plates were centrifuged at 1500 rpm for 3 min and then 16 μL of cell lysate was transferred from the cell-culture plate to a small volume detection plate with the added premixed antibody solutions (4 μL) (CisBio, cat #64FGFR2Y6PEG). Plates were centrifuged at 1000 rpm for 1 min then incubated at 25° C. for 120 min, then overnight at 4° C. Plates were read on the En Vision multimode plate reader via HTRF dual wavelength detection. One hundred percent of control (POC) was determined using DMSO treated samples, and 0 POC was determined using the top concentration of a control compound. A 4-parameter logistic curve was fit to the POC values as a function of compound concentration to determine the IC50 value.

[2] = molecular target: T1, FGFR2 (Homo sapiens, UniProt P21802); assay: FGFR wild type enzyme assay (HTRF KinEASE-TK); format: biochemical; conditions: ATP 2 uM
T1 construct: biochemical assays using purified intracellular domains of the respective isoforms; purchased Carna Bioscience 08-134
Experimental: (§1) Activity against FGFR wild type and mutant enzymes were determined in biochemical assays using purified intracellular domains of the respective isoforms using HTRF KinEASE-TK assay technology from CisBio, now PerkinElmer. (Catalogue number 62TK0PEC). Briefly test compounds were tested in 11 point 1:3 serial dilutions, typical final concentration range from 10,000 nM to 0.17 nM. Test compounds were dissolved in DMSO and added to assay plates using acoustic transfer. Enzyme was pre-incubated with test compound for 30 minutes and the assay was initiated by addition of ATP and TK-peptide substrate. After 60 minutes at room temperature the reaction was quenched with detection reagent and incubated for an additional 60 minutes at room temperature. The plates were read using a multimode reader and the emission ratio of 665 nm to 615 nm was determined. This ratio was converted to percent of control (POC). [1-(high control-sample signal)/(high control-low control)]*100. Wells without compound were used to determine high control values and wells without enzyme were used to determine low control values. The POC values were fit using a four-parameter logistic model and the value where the fit curve was equal to 50 POC was reported as the IC50 using the Signals Vitro Vivo software package (PerkinElmer). Final assay conditions were: 50 mM HEPES pH7.5, 10 mM MgCl2, 1 mM EDTA, 0.01% Brij-35, 2 mM MnCl2, 1 mM DTT, and 0.5 uM TK-peptide. The enzyme source, catalogue number, final enzyme concentration, and final ATP concentration can be found in the tables 1-2 below.

[3] = molecular target: T2, FGFR2 V564F (Homo sapiens, UniProt P21802, V564F); assay: FGFR mutant enzyme assay (HTRF KinEASE-TK); format: biochemical; conditions: ATP 1.5 uM
T2 construct: biochemical assays using purified intracellular domains of the respective isoforms; purchased SignalChem Biotech F05-12FG
Experimental: as §1

[4] = molecular target: T3, FGFR2 V564I (Homo sapiens, UniProt P21802, V564I); assay: FGFR mutant enzyme assay (HTRF KinEASE-TK); format: biochemical; conditions: ATP 0.4 uM
T3 construct: biochemical assays using purified intracellular domains of the respective isoforms; purchased Carna Bioscience 08-546
Experimental: as §1

[5] = molecular target: T4, FGFR2 N549H (Homo sapiens, UniProt P21802, N549H); assay: FGFR mutant enzyme assay (HTRF KinEASE-TK); format: biochemical; conditions: ATP 0.9 uM
T4 construct: biochemical assays using purified intracellular domains of the respective isoforms; purchased Carna Bioscience 08-532
Experimental: as §1

[6] = compound table after the examples, read-out: Enz FGFR2

T2 sequence (P21802 399-821 V564F limits assumed): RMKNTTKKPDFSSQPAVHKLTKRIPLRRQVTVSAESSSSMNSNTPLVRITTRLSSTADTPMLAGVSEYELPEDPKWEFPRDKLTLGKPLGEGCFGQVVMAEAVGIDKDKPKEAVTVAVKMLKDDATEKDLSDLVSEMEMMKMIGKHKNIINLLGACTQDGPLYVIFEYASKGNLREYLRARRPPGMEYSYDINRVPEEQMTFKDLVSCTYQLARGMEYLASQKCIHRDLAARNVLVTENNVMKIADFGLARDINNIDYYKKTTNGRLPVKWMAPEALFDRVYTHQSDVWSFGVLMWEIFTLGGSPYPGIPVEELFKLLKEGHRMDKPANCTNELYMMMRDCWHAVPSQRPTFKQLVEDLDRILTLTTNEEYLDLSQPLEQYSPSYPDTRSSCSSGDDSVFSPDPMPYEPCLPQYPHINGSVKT
T4 sequence (P21802 399-821 N549H limits assumed): as the sequence (P21802 399-821 V564F limits assumed) above, with N151H, F166V counted along it
T1 sequence (P21802 399-821 limits assumed): as the sequence (P21802 399-821 V564F limits assumed) above, with F166V counted along it
T3 sequence (P21802 399-821 V564I limits assumed): as the sequence (P21802 399-821 V564F limits assumed) above, with F166I counted along it
Chain of FGFR2-WT (P21802 430-767 limits assumed): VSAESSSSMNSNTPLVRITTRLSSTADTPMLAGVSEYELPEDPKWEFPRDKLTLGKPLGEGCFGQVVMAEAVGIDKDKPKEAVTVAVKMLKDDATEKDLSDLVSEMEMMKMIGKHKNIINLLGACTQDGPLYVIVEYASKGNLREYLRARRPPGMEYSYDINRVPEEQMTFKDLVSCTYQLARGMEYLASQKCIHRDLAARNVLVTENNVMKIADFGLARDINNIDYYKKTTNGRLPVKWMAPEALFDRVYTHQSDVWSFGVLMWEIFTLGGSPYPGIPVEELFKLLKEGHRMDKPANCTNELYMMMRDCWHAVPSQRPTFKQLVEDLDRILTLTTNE

| SMILES | IC50 [1] | IC50 ([2]; Table 3, read-out: FGFR2 Enz) | IC50 [2, 6] | IC50 [3] | IC50 [4] | IC50 [5] |
| --- | --- | --- | --- | --- | --- | --- |
| C[C@@H](Oc1cc(-c2nnn(C)c2N)cn2ncc(C#N)c12)c1ccc(F)cn1 [Compound 34, (R)-6-(5-amino-1-methyl-1H-1,2,3-triazol-4-yl)-4-(1-(5-fluoropyridin-2-yl)ethoxy)pyrazolo[1,5-a]pyridine-3-carbonitrile] | 17 nM | 2.6 nM | 2.6 nM | 10 nM | 12 nM | 3 nM |
| C[C@@H](Oc1cc(-c2cnn(C)c2N)cn2ncc(C#N)c12)c1ccccn1 [Compound 35, (R)-6-(5-amino-1-methyl-1H-pyrazol-4-yl)-4-(1-(pyridin-2-yl)ethoxy)pyrazolo[1,5-a]pyridine-3-carbonitrile] | 5 nM | 1 nM | 1 nM | 2 nM | 2.7 nM | 1 nM |
| CC(=O)N[C@H]1CC[C@H](n2ncc(-c3cc(O[C@H](C)c4ccc(F)cn4)c4c(C#N)cnn4c3)c2C)CC1 [Compound 36, N-((1R,4r)-4-(4-(3-cyano-4-((R)-1-(5-fluoropyridin-2-yl)ethoxy)pyrazolo[1,5-a]pyridin-6-yl)-5-methyl-1H-pyrazol-1-yl)cyclohexyl)acetamide] | 4 nM | 0.4 nM | 0.4 nM | 1.5 nM | 2 nM | 0.5 nM |
| Cc1c(-c2cc(O[C@H](C)c3ccc(F)cn3)c3c(C#N)cnn3c2)cnn1[C@H]1CCCN(C[C@H](O)CO)C1 [Compound 37, 6-(1-((S)-1-((S)-2,3-dihydroxypropyl)piperidin-3-yl)-5-methyl-1H-pyrazol-4-yl)-4-((R)-1-(5-fluoropyridin-2-yl)ethoxy)pyrazolo[1,5-a]pyridine-3-carbonitrile] | 5.6 nM | 0.5 nM | 0.5 nM | 1 nM | 1.6 nM | 0.3 nM |
| Cc1c(-c2cc(O[C@H](C)c3ccc(F)cn3)c3c(C#N)cnn3c2)cnn1[C@H]1CCCN(C(CO)CO)C1 [Compound 38, 6-(1-((S)-1-(1,3-dihydroxypropan-2-yl)piperidin-3-yl)-5-methyl-1H-pyrazol-4-yl)-4-((R)-1-(5-fluoropyridin-2-yl)ethoxy)pyrazolo[1,5-a]pyridine-3-carbonitrile] | 6 nM | 0.4 nM | 0.4 nM | 1 nM | 1.3 nM | 0.3 nM |
| Cc1c(-c2cc(O[C@H](C)c3ccc(F)cn3)c3c(C#N)cnn3c2)cnn1[C@H]1CCCN(C(=O)C2(O)CCC2)C1 [Compound 40, 4-((R)-1-(5-fluoropyridin-2-yl)ethoxy)-6-(1-((S)-1-(1-hydroxycyclobutane-1-carbonyl)piperidin-3-yl)-5-methyl-1H-pyrazol-4-yl)pyrazolo[1,5-a]pyridine-3-carbonitrile] | 6.7 nM | 1 nM | 1 nM | 2 nM | 3 nM | 0.6 nM |
| C[C@@H](Oc1cc(-c2cnn(C3CCN(C#N)CC3)c2N)cn2ncc(C#N)c12)c1ccc(F)cn1 [Compound 47, (R)-6-(5-amino-1-(1-cyanopiperidin-4-yl)-1H-pyrazol-4-yl)-4-(1-(5-fluoropyridin-2-yl)ethoxy)pyrazolo[1,5-a]pyridine-3-carbonitrile] | 4 nM | 0.3 nM | 0.3 nM | 1 nM | 1 nM | 0.4 nM |

More lines, now with the values ahead:

| IC50 [1] | IC50 ([2]; Table 3, read-out: FGFR2 Enz) | IC50 [2, 6] | IC50 [3] | IC50 [4] | IC50 [5] | SMILES |
| --- | --- | --- | --- | --- | --- | --- |
| 5.5 nM | 0.5 nM | 0.5 nM | 1 nM | 1 nM | 0.4 nM | Cc1c(-c2cc(O[C@H](C)c3ccc(F)cn3)c3c(C#N)cnn3c2)cnn1C1CCN(C[C@H](O)CO)CC1 [Compound 39, 6-(1-(1-((S)-2,3-dihydroxypropyl)piperidin-4-yl)-5-methyl-1H-pyrazol-4-yl)-4-((R)-1-(5-fluoropyridin-2-yl)ethoxy)pyrazolo[1,5-a]pyridine-3-carbonitrile] |
| 4 nM | 0.5 nM | 0.5 nM | 2 nM | 2 nM | 0.7 nM | Cc1c(-c2cc(O[C@H](C)c3ccc(F)cn3)c3c(C#N)cnn3c2)cnn1C1CCN(C(=O)[C@H](C)O)CC1 [Compound 41, 4-((R)-1-(5-fluoropyridin-2-yl)ethoxy)-6-(1-(1-((S)-2-hydroxypropanoyl)piperidin-4-yl)-5-methyl-1H-pyrazol-4-yl)pyrazolo[1,5-a]pyridine-3-carbonitrile] |
| 4 nM | 0.6 nM | 0.6 nM | 1.7 nM | 2 nM | 0.65 nM | Cc1c(-c2cc(O[C@H](C)c3ccc(F)cn3)c3c(C#N)cnn3c2)cnn1C1CCN(C(=O)CO)CC1 [Compound 42, (R)-4-(1-(5-fluoropyridin-2-yl)ethoxy)-6-(1-(1-(2-hydroxyacetyl)piperidin-4-yl)-5-methyl-1H-pyrazol-4-yl)pyrazolo[1,5-a]pyridine-3-carbonitrile] |
| 9 nM | 1 nM | 1 nM | 3 nM | 3 nM | 1 nM | Cc1c(-c2cc(O[C@H](C)c3ccc(F)cn3)c3c(C#N)cnn3c2)cnn1C1CCN(C(=O)C2(N)CCC2)CC1 [Compound 43, (R)-6-(1-(1-(1-aminocyclobutane-1-carbonyl)piperidin-4-yl)-5-methyl-1H-pyrazol-4-yl)-4-(1-(5-fluoropyridin-2-yl)ethoxy)pyrazolo[1,5-a]pyridine-3-carbonitrile] |
| 8 nM | 0.5 nM | 0.5 nM | 1 nM | 1.5 nM | 0.4 nM | Cc1c(-c2cc(O[C@H](C)c3ccc(F)cn3)c3c(C#N)cnn3c2)cnn1C1CCN(C(=O)[C@@H](N)C(C)C)CC1 [Compound 44, 6-(1-(1-(L-valyl)piperidin-4-yl)-5-methyl-1H-pyrazol-4-yl)-4-((R)-1-(5-fluoropyridin-2-yl)ethoxy)pyrazolo[1,5-a]pyridine-3-carbonitrile] |
| 60 nM | 6.5 nM | 6.5 nM | 13 nM | 23 nM | 7 nM | Cc1c(-c2cc(O[C@@H](C)c3ccc(F)cn3)c3c(C#N)cnn3c2)cnn1[C@H]1CC[C@H](O)CC1 [Compound 45, 4-((S)-1-(5-fluoropyridin-2-yl)ethoxy)-6-(1-((1r,4S)-4-hydroxycyclohexyl)-5-methyl-1H-pyrazol-4-yl)pyrazolo[1,5-a]pyridine-3-carbonitrile] |
| 3 nM | 0.3 nM | 0.3 nM | 1 nM | 1 nM | 0.3 nM | Cc1c(-c2cc(O[C@H](C)c3ccc(F)cn3)c3c(C#N)cnn3c2)cnn1[C@H]1CC[C@@H](O)CC1 [Compound 46, 4-((R)-1-(5-fluoropyridin-2-yl)ethoxy)-6-(1-((1s,4S)-4-hydroxycyclohexyl)-5-methyl-1H-pyrazol-4-yl)pyrazolo[1,5-a]pyridine-3-carbonitrile] |
| 3 nM | 0.4 nM | 0.4 nM | 1 nM | 1 nM | 0.4 nM | Cc1c(-c2cc(O[C@H](C)c3ccc(F)cn3)c3c(C#N)cnn3c2)cnn1[C@H]1CCCN(C(=O)[C@@H](C)O)C1 [Compound 48, 4-((R)-1-(5-fluoropyridin-2-yl)ethoxy)-6-(1-((S)-1-((R)-2-hydroxypropanoyl)piperidin-3-yl)-5-methyl-1H-pyrazol-4-yl)pyrazolo[1,5-a]pyridine-3-carbonitrile] |
